Experimental data from patent US6355799B1, “Substituted benzene compounds, process for their preparation, and herbicidal and defoliant compositions containing them” (ISK Americas Incorporated, priority 1997, dated 2002).

Assays:
Type in all cases: in vivo
[1] = tested on: johnsongrass (Sorghum halepense, SORHA); test: Pre-emerge test, greenhouse herbicide activity screening; conditions: pre-emerge, phytotoxicity rating 0-100 at 14 days after application
In short: (§1)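 Compounds in acetone were track-sprayed at 15–1000 g ai/ha: pre-emergence onto soil sown the previous day, then top-watered to incorporate and later bottom-watered; post-emergence onto 2–3 leaf plants with 0.25% v/v surfactant, bottom-watered only. Ratings on a 0–100 phytotoxicity scale were taken at day 14.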

[2] = tested on: velvetleaf (Abutilon theophrasti, ABUTH); test: as above; conditions: pre-emerge, phytotoxicity rating 0-100 at 14 days after application
In short: as §1

[3] = tested on: lambsquarters (Chenopodium album, CHEAL); test: as above; conditions: pre-emerge, phytotoxicity rating 0-100 at 14 days after application
In short: as §1

[4] = tested on: ivyleaf morningglory (Ipomoea hederacea, IPOHE); test: as above; conditions: pre-emerge, phytotoxicity rating 0-100 at 14 days after application
In short: as §1

[5] = tested on: barnyardgrass (Echinochloa crus-galli, ECHCG); test: as above; conditions: pre-emerge, phytotoxicity rating 0-100 at 14 days after application
In short: as §1

[6] = tested on: large crabgrass (Digitaria sanguinalis, DIGSA); test: as above; conditions: pre-emerge, phytotoxicity rating 0-100 at 14 days after application
In short: as §1

[7] = tested on: sicklepod (Cassia obtusifolia, CASOB); test: as above; conditions: pre-emerge, phytotoxicity rating 0-100 at 14 days after application
In short: as §1

[8] = tested on: green foxtail (Setaria viridis, SETVI); test: as above; conditions: pre-emerge, phytotoxicity rating 0-100 at 14 days after application
In short: as §1

[9] = tested on: field corn (Zea mays L., var. Dekalb 535, CORN); test: Post-emerge test, crop safety; conditions: post-emerge, crop damage rating 0-100 at 14 days after application
In short: (§2)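 Rating: 0–100 visual injury, 14 DAA. Application: acetone, 187 l/ha, 15–1000 g ai/ha, flat-fan track sprayer with nozzle 40–45 cm above soil or canopy. Post-emerge runs used 0.25% v/v surfactant on 2–3 leaf plants.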

[10] = tested on: upland rice (Oryza sp., var. Tebonnet, RICE); test: Post-emerge test, crop safety; conditions: post-emerge, crop damage rating 0-100 at 14 days after application
In short: as §2

[11] = tested on: field corn (Zea mays L., var. Dekalb 535, CORN); test: Pre-emerge test, crop safety; conditions: crop damage, pre-emerge, phytotoxicity rating 0-100 at 14 days after application
In short: (§3)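 Plants grown in 10 cm pots of sandy loam mix received acetone-dissolved compounds through a moving flat-fan nozzle. Doses ranged from 15 to 1000 g ai/ha. Pre-emerge pots were seeded one day earlier, post-emerge pots 8–21 days earlier. Fourteen days on, each pot was graded 0–100 for damage.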

[12] = tested on: upland rice (Oryza sp., var. Tebonnet, RICE); test: Pre-emerge test, crop safety; conditions: crop damage, pre-emerge, phytotoxicity rating 0-100 at 14 days after application
In short: as §3

[13] = tested on: redroot pigweed (Amaranthus retroflexus, AMARE); test: Pre-emerge test, greenhouse herbicide activity screening; conditions: pre-emerge, phytotoxicity rating 0-100 at 14 days after application
In short: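 Herbicidal damage is scored 0 (none) to 100 (complete plant death) two weeks after a simulated field spray. Rates span 15–1000 g ai/ha, delivered in acetone at 187 l/ha. For post-emergence treatments, plants have 2–3 leaves and the spray carries 0.25% v/v non-ionic surfactant.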

[14] = tested on: johnsongrass (Sorghum halepense, SORHA); test: Post-emerge test, greenhouse herbicide activity screening; conditions: post-emerge, phytotoxicity rating 0-100 at 14 days after application
In short: (§4)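 Compounds in acetone were track-sprayed at 15-1000 g ai/ha (187 l/ha) on sandy loam pots: pre-emerge one day after seeding, post-emerge at 2-3 leaf stage with 0.25% v/v non-ionic surfactant. Phytotoxicity was rated 14 days later on a 0 (no damage) to 100 (complete death) scale.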

[15] = tested on: velvetleaf (Abutilon theophrasti, ABUTH); test: as above; conditions: post-emerge, phytotoxicity rating 0-100 at 14 days after application
In short: as §4

[16] = tested on: lambsquarters (Chenopodium album, CHEAL); test: as above; conditions: post-emerge, phytotoxicity rating 0-100 at 14 days after application
In short: as §4

[17] = tested on: ivyleaf morningglory (Ipomoea hederacea, IPOHE); test: as above; conditions: post-emerge, phytotoxicity rating 0-100 at 14 days after application
In short: as §4

[18] = tested on: barnyardgrass (Echinochloa crus-galli, ECHCG); test: as above; conditions: post-emerge, phytotoxicity rating 0-100 at 14 days after application
In short: as §4

[19] = tested on: large crabgrass (Digitaria sanguinalis, DIGSA); test: as above; conditions: post-emerge, phytotoxicity rating 0-100 at 14 days after application
In short: as §4

[20] = tested on: sicklepod (Cassia obtusifolia, CASOB); test: as above; conditions: post-emerge, phytotoxicity rating 0-100 at 14 days after application
In short: as §4

[21] = tested on: redroot pigweed (Amaranthus retroflexus, AMARE); test: as above; conditions: post-emerge, phytotoxicity rating 0-100 at 14 days after application
In short: as §4

[22] = tested on: green foxtail (Setaria viridis, SETVI); test: as above; conditions: post-emerge, phytotoxicity rating 0-100 at 14 days after application
In short: as §4

COc1ccccc1COC(=O)Nc1c(C)c(Cl)cc(F)c1-n1c(=O)cc(C(F)(F)F)n(C)c1=O [4-58]
90: Post-emerge Herbicidal Activity CASOB ([20]; 63 g ai/ha) | Post-emerge Herbicidal Activity SETVI ([22]; 250 g ai/ha)
60: Pre-emerge Herbicidal Activity SORHA ([1]; rate 250 g ai/ha) | Post-emerge Herbicidal Activity RICE ([10]; 63 g ai/ha) | Post-emerge Herbicidal Activity DIGSA ([19]; 250 g ai/ha)
20: Pre-emerge Herbicidal Activity SORHA ([1]; rate 63 g ai/ha) | Post-emerge Herbicidal Activity DIGSA ([19]; 63 g ai/ha)
25: Pre-emerge Herbicidal Activity CORN ([11]; rate 250 g ai/ha)
100: Pre-emerge Herbicidal Activity ABUTH ([2]; rate 63 g ai/ha) | Pre-emerge Herbicidal Activity ABUTH ([2]; rate 250 g ai/ha) | Pre-emerge Herbicidal Activity CHEAL ([3]; rate 63 g ai/ha) | Pre-emerge Herbicidal Activity CHEAL ([3]; rate 250 g ai/ha) | Pre-emerge Herbicidal Activity IPOHE ([4]; rate 250 g ai/ha) | Pre-emerge Herbicidal Activity DIGSA ([6]; rate 250 g ai/ha) | Pre-emerge Herbicidal Activity CASOB ([7]; rate 250 g ai/ha) | Pre-emerge Herbicidal Activity SETVI ([8]; rate 250 g ai/ha) | Pre-emerge Herbicidal Activity AMARE ([13]; rate 63 g ai/ha) | Pre-emerge Herbicidal Activity AMARE ([13]; rate 250 g ai/ha) | Post-emerge Herbicidal Activity ABUTH ([15]; 63 g ai/ha) | Post-emerge Herbicidal Activity ABUTH ([15]; 250 g ai/ha) | Post-emerge Herbicidal Activity CHEAL ([16]; 63 g ai/ha) | Post-emerge Herbicidal Activity CHEAL ([16]; 250 g ai/ha) | Post-emerge Herbicidal Activity IPOHE ([17]; 63 g ai/ha) | Post-emerge Herbicidal Activity IPOHE ([17]; 250 g ai/ha) | Post-emerge Herbicidal Activity CASOB ([20]; 250 g ai/ha) | Post-emerge Herbicidal Activity AMARE ([21]; 63 g ai/ha) | Post-emerge Herbicidal Activity AMARE ([21]; 250 g ai/ha)
50: Post-emerge Herbicidal Activity SORHA ([14]; 250 g ai/ha) | Post-emerge Herbicidal Activity SETVI ([22]; 63 g ai/ha)
80: Pre-emerge Herbicidal Activity SETVI ([8]; rate 63 g ai/ha)
40: Post-emerge Herbicidal Activity ECHCG ([18]; 250 g ai/ha)
70: Pre-emerge Herbicidal Activity ECHCG ([5]; rate 250 g ai/ha) | Pre-emerge Herbicidal Activity CASOB ([7]; rate 63 g ai/ha) | Post-emerge Herbicidal Activity CORN ([9]; 250 g ai/ha) | Pre-emerge Herbicidal Activity RICE ([12]; rate 250 g ai/ha)
30: Pre-emerge Herbicidal Activity IPOHE ([4]; rate 63 g ai/ha) | Pre-emerge Herbicidal Activity ECHCG ([5]; rate 63 g ai/ha) | Pre-emerge Herbicidal Activity DIGSA ([6]; rate 63 g ai/ha) | Post-emerge Herbicidal Activity CORN ([9]; 63 g ai/ha) | Pre-emerge Herbicidal Activity RICE ([12]; rate 63 g ai/ha) | Post-emerge Herbicidal Activity SORHA ([14]; 63 g ai/ha) | Post-emerge Herbicidal Activity ECHCG ([18]; 63 g ai/ha)
75: Post-emerge Herbicidal Activity RICE ([10]; 250 g ai/ha)
0: Pre-emerge Herbicidal Activity CORN ([11]; rate 63 g ai/ha)
